Assays:
Assay type in all cases: cell-based, human
Rac1 [1] = assay: Rac1 protein expression (Western blot, immunocytochemistry)
Description: Western blots: Equal amounts of extract (30 μg) were added to 8 μl of electrophoresis sample buffer (Firma Roth; Karlsruhe, Germany). After boiling, the extracts were loaded on 15% SDS-PAGE gels and electrophoretically separated. Proteins were transferred to nitrocellulose membranes, and detection was performed with the ECL Western blotting analysis system (Amersham). […]
Immunocytochemical analysis: Immunocytochemistry was performed as described in Atreya et al., supra and Finotto et al., J. Exp. Med. 193:1247-1260 (2001)). […] Cells were rinsed with PBS, and nuclei were counterstained with Hoechst33342 blue for fluorescence (Molecular Probes; Burlingame, Calif., USA). Finally, cells were washed in PBS and analyzed with an Olympus Microscope. Six to ten high-power fields were finally analyzed in all patients per condition, and selected high-power fields were further analyzed by confocal laser microscopy.

[2] = system: primary CD4+ T lymphocytes; assay: T cell vitality and clonal expansion (trypan blue)
Description: Analysis of T cell vitality and clonal expansion: To induce T cell expansion, purified T lymphocytes were stimulated with coated antibodies to CD3 (0.04 μg/ml), soluble antibodies to CD28 (1 μg/ml), and recombinant IL-2 (40 U/ml) for the indicated periods of time. […] Cell viability was assessed by trypan blue (Sigma-Aldrich) staining at the beginning and at the end of the cell culture. The clonal expansion of T cells during cell culture was calculated by the ratio between cell numbers at the beginning and at the end of the cell culture.

Rac1 [3] = assay: Rac1 activation assay (GTP-bound Rac1, PAK pull-down); conditions: primary T cells, 3 days
Description: Cell lysates were incubated with 10 μg/ml PAK-1 agarose (Rac assays) or 10 μg/mg Raf RBD agarose (Ras assay) for 60 minutes (Rac assays) or 30 minutes (Ras assays) at 4° C. Agarose beads were collected by centrifugation followed by denaturation, boiling of the samples, and SDS-PAGE analysis.

Row | SMILES | expression of Rac1 (Rac1 [1]) | clonal expansion of T cells ([2]; day 5) | CD28 costimulation induced Rac1 activation (GTP-bound Rac1) (Rac1 [3]) | clonal expansion of T cells ([2]; earlier time points than day 5)
1 | Sc1ncnc2nc[nH]c12 [6-MP, 6-mercaptopurine] | not significantly suppressed | suppresses clonal expansion | strongly suppressed | –
2 | Cn1cnc([N+](=O)[O-])c1Sc1ncnc2nc[nH]c12 [azathioprine, Azathioprine] | not significantly suppressed | reduction in the clonal expansion | strongly suppressed | no significant changes
